According to US6150412A, “Catechol derivatives” (Orion-yhtyma Oy, priority 1995, dated 2000):
Like-named read-outs stand apart in the source and are kept apart here.

Key:
[1] = Determination of plasma concentrations after oral dosing; assay type: in vivo; conditions: rat, male Wistar rats, orally dosed 10 mg/kg, read-out: Plasma c; for concentration at 0.5 h: t = 30 min; for concentration at 5 h: t = 5 h
Protocol: Male Wistar rats (220-280 g) were orally dosed (10 mg/kg) with test compounds. Control animals received the vehicle only. Blood samples were drawn from the tail artery 0.5 and 5 hours after the treatment and collected into pre-cooled Li-heparinized tubes. The plasma was separated by centrifugation (11000 g, 5 min) and stored at -80° C. until analysis.
The analytes were extracted from 200 μl of acidified plasma (100 μl of 1 M HCI) with 5 ml of ethyl acetate. The organic phase (4 ml) was evaporated to dryness under a stream of nitrogen at 40° C. The residue was redissolved in 200 μl of dimethylsulphoxide and 30 μl of it was analyzed by HPLC with amperometric detection. The electrode potential was +700 mV.

S-COMT enzyme = molecular target: T1, S-COMT enzyme (Homo sapiens, UniProt P21964); assay: Determination of IC50 values, COMT inhibition (dopamine methylation, HPLC); assay type: biochemical; conditions: S-COMT enzyme (about 30 nM), 0.05 mM AdoMet, 3 mM dopamine, 5 min preincubation, 15 min at 37° C., pH 7.4
T1 sequence (P21964 1-221 isoform P21964-2): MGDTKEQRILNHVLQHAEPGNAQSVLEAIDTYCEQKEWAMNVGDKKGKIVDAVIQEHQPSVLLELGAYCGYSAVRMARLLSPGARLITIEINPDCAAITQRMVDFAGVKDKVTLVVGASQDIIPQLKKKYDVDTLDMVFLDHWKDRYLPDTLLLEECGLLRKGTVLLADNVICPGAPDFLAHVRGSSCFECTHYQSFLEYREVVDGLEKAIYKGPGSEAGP
Protocol: The studied inhibitors were first dissolved into 0.1 M NaOH solution and then diluted with distilled water to 0.5 mM inhibitor concentration. From this stock solution the inhibitor concentrations were adjusted by diluting the desired amounts of stock solution with 0.05 M phosphate buffer, pH 7.4. The studied sample solutions were prepared into the Eppendorf tubes. The final concentrations of the studied samples were; -100 mM phosphate buffer, 5 mM MgCl2, 0.05 mM AdoMet, S-COMT enzyme (about 30 nM) and the inhibitor.
The samples were mixed with Vortex, and incubated for 5 min at 37° C. The reactions were initiated with 3 mM dopamine and carried on for 15 min at 37° C. The reactions were stopped with 4 M perchloric acid and stabilized afterwards for 10 min in ice bath. The sample solutions were centrifuged for 10 min, and the methylated products, 3-methyldopamineand 4-methyidopamine, were analysed with HPLC.

SMILES	IC50 (S-COMT enzyme) [nM]	other results
CC(=O)C(=Cc1cc(O)c(O)c([N+](=O)[O-])c1)C(C)=O [Comparison compound 2, 2[(3,4-dihydroxy-5-nitrophenyl)methylene]-2,4-pentanedione, reference compound]		concentration at 0.5 h ([1]; plasma): 530 ng/mL; concentration at 5 h ([1]; plasma): < 25 ng/mL
O=C(O)CCc1c([N+](=O)[O-])cc(O)c(O)c1[N+](=O)[O-] [Example 11, 3-(3,4-DIHYDROXY-2,6-DINITROPHENYL)-PROPANOIC ACID]	30	concentration at 0.5 h ([1]; in vivo): 2100 ng/mL; concentration at 5 h ([1]; in vivo): 490 ng/mL
O=C(O)CCCCc1c([N+](=O)[O-])cc(O)c(O)c1[N+](=O)[O-] [Example 13, 5-(3,4-DIHYDROXY-2,6-DINITROPHENYL)-PENTANOIC ACID]	20	
O=Cc1cc(O)c(O)c(C=O)c1CCCCC(=O)O [Example 14, 5-(2.6-DIFORMYL-3,4-DIHYDROXYPHENYL)PENTANOIC ACID]	30	
O=Cc1cc(O)c(O)c(C=O)c1CCC(=O)O [Example 15, 3-(2,6-DIFORMYL-3,4-DIHYDROXYPHENYL)PROPANOIC ACID]	60	
N#Cc1cc(O)c(O)c(C#N)c1CCCCC(=O)O [Example 16, 5-(3,4-DIHYDROXY-2,6-DICYANOPHENYL)PENTANOIC ACID]	15	concentration at 0.5 h ([1]; plasma): 2000 ng/mL; concentration at 5 h ([1]; plasma): 150 ng/mL
N#Cc1cc(O)c(O)c(C#N)c1CCC(=O)O [Example 17, 3-(2,6-DICYANO-3,4-DIHYDROXYPHENYL)PROPANOIC ACID]	20	
